Data published in ChEMBL document CHEMBL1201862, “PubChem BioAssay data set” (2004).
Activity calls are given as the source filed them.

Tests used:
HEK293 = assay: cells; conditions: Homo sapiens;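 also: cells exposed to compound for 14 hours overnight before viability readout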
[1] = target: Nucleotide-binding oligomerization domain-containing protein 2 (Homo sapiens, UniProt Q9HC29); assay: PubChem AID 2334; format: functional
[2] = target: T1, Nucleotide-binding oligomerization domain-containing protein 1 (Homo sapiens, UniProt Q9Y239); assay: blockers of NOD1 pathway activity – revised, SAR follow-up (AID 2333); format: functional
T1 sequence (Q9Y239 whole entry): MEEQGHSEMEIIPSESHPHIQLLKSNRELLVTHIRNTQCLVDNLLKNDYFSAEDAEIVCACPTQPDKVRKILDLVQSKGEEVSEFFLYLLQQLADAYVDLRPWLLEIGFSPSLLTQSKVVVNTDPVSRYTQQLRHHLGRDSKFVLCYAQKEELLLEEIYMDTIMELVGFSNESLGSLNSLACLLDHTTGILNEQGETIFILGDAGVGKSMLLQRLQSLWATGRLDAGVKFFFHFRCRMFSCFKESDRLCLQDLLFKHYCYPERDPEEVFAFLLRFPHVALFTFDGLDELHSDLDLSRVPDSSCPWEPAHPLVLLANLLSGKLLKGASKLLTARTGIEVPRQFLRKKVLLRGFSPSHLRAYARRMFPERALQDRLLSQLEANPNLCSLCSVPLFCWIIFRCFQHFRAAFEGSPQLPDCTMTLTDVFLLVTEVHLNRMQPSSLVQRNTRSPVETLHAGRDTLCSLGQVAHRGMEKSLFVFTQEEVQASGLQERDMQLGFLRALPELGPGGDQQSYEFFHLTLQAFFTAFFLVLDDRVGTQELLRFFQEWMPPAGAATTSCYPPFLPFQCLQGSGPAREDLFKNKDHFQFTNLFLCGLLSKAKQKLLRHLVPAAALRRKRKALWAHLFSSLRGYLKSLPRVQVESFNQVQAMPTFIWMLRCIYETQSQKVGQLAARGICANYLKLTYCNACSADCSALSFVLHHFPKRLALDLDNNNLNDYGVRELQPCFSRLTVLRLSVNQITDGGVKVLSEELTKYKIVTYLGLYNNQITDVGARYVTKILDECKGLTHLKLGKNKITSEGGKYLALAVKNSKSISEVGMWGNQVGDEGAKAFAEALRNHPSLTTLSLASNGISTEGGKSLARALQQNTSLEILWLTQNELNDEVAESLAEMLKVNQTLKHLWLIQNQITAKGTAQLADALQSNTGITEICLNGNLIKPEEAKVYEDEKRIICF

Tumor necrosis factor = Tumor necrosis factor (Homo sapiens, UniProt P01375); assay: analog potency on TNFa NF-kB signaling – cell-based, revised, SAR follow-up (AID 2337); format: functional
Sequence of Tumor necrosis factor (P01375 whole entry): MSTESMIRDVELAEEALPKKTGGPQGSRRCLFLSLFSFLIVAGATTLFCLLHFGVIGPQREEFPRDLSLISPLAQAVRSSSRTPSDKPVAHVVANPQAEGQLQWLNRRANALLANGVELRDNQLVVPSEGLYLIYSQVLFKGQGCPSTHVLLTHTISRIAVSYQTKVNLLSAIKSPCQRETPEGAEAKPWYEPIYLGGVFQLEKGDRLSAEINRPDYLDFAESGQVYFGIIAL

[3] = target: Glyceraldehyde-3-phosphate dehydrogenase (Homo sapiens, UniProt P04406)
Sequence of Glyceraldehyde-3-phosphate dehydrogenase (P04406 whole entry): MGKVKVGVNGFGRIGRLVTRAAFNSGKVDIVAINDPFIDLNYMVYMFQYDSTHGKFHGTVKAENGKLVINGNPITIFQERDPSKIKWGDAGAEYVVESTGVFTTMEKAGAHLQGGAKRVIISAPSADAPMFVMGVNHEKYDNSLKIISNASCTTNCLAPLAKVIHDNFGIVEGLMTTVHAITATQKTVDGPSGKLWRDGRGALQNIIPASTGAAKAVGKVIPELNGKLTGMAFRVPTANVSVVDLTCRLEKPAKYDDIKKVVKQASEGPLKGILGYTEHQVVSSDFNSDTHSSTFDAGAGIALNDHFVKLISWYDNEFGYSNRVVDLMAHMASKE

[4] = target: T2, Dual specificity protein phosphatase 6 (Rattus norvegicus, UniProt Q64346)
T2 sequence (Q64346 whole entry): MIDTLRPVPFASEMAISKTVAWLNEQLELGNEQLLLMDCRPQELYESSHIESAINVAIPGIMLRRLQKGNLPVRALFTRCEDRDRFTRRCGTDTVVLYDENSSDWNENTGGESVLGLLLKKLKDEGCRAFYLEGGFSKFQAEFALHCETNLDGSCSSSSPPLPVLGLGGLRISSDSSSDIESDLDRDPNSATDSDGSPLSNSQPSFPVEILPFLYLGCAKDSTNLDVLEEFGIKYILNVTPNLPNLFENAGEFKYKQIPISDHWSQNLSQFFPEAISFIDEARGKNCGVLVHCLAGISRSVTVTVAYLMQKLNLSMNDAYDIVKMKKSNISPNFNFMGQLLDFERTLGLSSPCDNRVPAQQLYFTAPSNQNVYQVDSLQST

[5] = target: T2, Dual specificity protein phosphatase 6; format: functional
[6] = target: T3, Tyrosine-protein phosphatase non-receptor type 7 (Homo sapiens, UniProt P35236); format: functional
T3 sequence (P35236 whole entry): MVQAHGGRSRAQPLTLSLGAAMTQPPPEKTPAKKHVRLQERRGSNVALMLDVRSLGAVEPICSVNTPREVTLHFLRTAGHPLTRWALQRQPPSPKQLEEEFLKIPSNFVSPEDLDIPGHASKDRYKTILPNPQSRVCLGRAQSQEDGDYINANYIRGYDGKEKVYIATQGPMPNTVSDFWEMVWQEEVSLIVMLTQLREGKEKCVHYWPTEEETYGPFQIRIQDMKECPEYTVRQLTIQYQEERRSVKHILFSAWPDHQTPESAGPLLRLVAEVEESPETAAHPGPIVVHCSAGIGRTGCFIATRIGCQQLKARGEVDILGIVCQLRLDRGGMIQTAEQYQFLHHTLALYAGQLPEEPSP

Streptokinase A = target: T4, Streptokinase A (Streptococcus pyogenes serotype M1, UniProt P10520); assay: viability-normalized secreted streptokinase activity reduction – plasminogen activation absorbance, OD405, dose response (AID 1914); format: functional, Streptococcus pyogenes M1 GAS;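 also: secreted streptokinase activity via plasminogen activation per viability signal from cell pellet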
T4 sequence (P10520 whole entry): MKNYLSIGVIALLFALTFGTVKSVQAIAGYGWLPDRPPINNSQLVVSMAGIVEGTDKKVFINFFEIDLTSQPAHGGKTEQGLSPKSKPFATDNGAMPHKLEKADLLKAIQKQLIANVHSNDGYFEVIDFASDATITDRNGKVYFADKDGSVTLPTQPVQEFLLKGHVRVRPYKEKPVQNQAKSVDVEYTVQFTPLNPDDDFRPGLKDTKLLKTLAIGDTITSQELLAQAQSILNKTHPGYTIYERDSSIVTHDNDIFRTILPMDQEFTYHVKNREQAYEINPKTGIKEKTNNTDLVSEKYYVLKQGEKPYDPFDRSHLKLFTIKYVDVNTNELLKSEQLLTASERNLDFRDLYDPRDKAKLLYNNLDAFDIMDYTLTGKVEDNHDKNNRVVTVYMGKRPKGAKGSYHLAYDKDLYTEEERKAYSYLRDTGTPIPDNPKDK

Genome polyprotein = Genome polyprotein (dengue virus type 2, UniProt P29990); assay: flavivirus cap methylation enzyme inhibition – biochemical, confirmation dose response, primary screen (AID 588689); format: functional
Sequence of Genome polyprotein (P29990 2492-3391 limits assumed): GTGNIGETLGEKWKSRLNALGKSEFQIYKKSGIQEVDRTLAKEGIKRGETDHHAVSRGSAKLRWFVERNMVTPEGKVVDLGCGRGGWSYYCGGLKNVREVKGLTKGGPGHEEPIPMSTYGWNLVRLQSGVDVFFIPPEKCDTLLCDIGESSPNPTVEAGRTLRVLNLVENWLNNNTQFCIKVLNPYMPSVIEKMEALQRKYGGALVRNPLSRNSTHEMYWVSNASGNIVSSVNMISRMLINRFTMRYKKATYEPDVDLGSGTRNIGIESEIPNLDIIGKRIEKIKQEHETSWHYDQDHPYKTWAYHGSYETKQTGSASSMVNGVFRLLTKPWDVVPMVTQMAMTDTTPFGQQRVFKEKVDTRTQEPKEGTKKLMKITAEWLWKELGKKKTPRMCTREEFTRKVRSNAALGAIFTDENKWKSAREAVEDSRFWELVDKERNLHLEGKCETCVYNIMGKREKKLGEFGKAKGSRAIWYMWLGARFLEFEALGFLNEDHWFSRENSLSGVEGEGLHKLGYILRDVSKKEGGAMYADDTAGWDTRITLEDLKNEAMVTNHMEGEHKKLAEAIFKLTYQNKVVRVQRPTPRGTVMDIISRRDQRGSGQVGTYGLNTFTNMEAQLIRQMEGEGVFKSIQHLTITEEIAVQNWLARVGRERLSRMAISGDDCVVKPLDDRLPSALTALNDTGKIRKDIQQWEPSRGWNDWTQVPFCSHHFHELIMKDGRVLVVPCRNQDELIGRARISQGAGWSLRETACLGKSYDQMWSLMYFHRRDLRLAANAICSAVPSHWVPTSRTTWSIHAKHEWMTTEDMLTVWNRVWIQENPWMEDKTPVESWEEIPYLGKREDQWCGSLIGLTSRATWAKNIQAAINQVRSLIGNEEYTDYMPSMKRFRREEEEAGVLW

[7] = target: Scavenger receptor class B member 1 (Mus musculus, UniProt Q61009); assay: mouse SR-BI DiI-HDL uptake blockers – ldlA[mSR-BI] cells, fluorescence, cherry pick, dose response (AID 493194); format: functional, cell-based;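 also: cellular uptake of fluorescent DiI-labeled HDL measured as cell fluorescence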
Sequence of Scavenger receptor class B member 1 (Q61009 whole entry): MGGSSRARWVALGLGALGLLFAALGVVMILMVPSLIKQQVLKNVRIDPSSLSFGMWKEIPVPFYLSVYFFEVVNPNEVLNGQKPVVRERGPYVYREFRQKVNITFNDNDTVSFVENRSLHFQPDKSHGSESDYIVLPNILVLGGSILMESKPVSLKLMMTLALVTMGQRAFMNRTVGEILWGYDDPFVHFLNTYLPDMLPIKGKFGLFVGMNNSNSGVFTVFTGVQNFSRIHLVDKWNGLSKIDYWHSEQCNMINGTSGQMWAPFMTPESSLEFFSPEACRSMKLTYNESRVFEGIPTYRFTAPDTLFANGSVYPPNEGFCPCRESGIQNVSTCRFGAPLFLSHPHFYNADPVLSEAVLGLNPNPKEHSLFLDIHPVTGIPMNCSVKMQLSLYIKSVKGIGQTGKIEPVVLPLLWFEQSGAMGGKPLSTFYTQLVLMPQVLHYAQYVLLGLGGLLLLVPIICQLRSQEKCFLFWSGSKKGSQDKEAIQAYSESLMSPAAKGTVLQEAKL

Melanocortin receptor 4 = Melanocortin receptor 4 (Homo sapiens, UniProt P32245); assay: inhibitors of MC4R cAMP signaling – cell-based, TR-FRET, biased antagonists, dose response (AID 602298); format: functional;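 also: antagonist potency against agonist-stimulated cAMP production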
Sequence of Melanocortin receptor 4 (P32245 whole entry): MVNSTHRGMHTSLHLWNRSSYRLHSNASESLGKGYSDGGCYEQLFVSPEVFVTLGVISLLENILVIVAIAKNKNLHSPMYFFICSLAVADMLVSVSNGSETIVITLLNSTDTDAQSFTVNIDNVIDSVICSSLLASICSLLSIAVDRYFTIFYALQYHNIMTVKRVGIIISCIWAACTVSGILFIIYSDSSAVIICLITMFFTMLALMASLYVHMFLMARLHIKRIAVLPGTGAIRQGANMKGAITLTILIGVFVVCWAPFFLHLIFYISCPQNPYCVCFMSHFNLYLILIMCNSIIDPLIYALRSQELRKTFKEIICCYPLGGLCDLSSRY

Beta-galactosidase = Beta-galactosidase (Escherichia coli, UniProt Q8VNN2); assay: detection-enzyme interference by beta-gal modulators – biochemical, E. coli enzyme, set 3, artefact control for CCR6 antagonist project, dose response (AID 504712); format: functional
Sequence of Beta-galactosidase (Q8VNN2 whole entry): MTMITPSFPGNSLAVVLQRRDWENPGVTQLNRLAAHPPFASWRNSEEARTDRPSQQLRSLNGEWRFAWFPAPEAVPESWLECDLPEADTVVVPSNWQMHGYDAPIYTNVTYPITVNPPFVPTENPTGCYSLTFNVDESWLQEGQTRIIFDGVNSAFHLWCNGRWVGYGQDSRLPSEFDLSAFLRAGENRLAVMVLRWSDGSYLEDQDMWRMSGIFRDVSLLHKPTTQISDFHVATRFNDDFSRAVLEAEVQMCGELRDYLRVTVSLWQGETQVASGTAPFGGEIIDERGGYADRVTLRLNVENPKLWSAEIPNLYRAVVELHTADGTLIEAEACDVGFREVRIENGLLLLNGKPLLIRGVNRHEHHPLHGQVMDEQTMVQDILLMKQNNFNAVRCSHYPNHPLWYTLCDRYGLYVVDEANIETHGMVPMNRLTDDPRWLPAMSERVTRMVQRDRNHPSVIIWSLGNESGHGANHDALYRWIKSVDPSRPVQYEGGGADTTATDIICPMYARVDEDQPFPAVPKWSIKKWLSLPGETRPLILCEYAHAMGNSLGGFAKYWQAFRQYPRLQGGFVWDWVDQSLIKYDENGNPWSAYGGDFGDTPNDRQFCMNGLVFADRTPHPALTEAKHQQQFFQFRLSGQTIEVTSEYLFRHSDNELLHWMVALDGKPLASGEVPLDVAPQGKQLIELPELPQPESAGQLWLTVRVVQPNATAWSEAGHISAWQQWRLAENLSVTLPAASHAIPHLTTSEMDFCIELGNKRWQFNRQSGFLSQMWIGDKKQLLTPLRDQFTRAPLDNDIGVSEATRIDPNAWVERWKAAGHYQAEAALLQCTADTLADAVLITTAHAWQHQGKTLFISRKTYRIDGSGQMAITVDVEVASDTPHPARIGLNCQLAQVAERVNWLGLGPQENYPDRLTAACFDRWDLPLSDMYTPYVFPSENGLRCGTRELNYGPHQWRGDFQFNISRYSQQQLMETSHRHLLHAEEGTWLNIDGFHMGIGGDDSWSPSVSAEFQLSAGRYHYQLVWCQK

[8] = reduced cellular PGC1a acetyl-lysine signal – cell-based, cherry-picked samples, dose response (AID 720514); format: functional;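 also: potency may reflect raised or lowered acetylation signal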
[9] = non-specific 3'UTR reporter inhibition in Clone20-Shn3RL – cell-based, Renilla luciferase, cherry-picked, counter-screen for Shn3 inhibitor project, dose response (AID 624133); format: functional
[10] = reduction of Shn3 3'UTR-driven luciferase in osteoblasts – cell-based, Clone20 osteoblasts, firefly luciferase, cherry-picked, dose response (AID 624132); format: functional;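 also: firefly luciferase luminescence from reporter carrying the Shn3 3'UTR in osteoblasts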
[11] = loss of viability in HepG2 cells – cell-based, CellTiter-Glo, cherry-picked, cytotoxicity control for Shn3 inhibitor project, dose response (AID 624134); format: functional
[12] = target: Photoreceptor-specific nuclear receptor (Homo sapiens, UniProt Q9Y5X4); format: functional, cell-based;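 also: CHO-S cells with Gal4-NCOR and VP16-NR2E3 two-hybrid luciferase reporter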
[13] = cAMP pathway inhibition in counterscreen cell line – TR-FRET cAMP detection, counter-screen for MC4R biased antagonist project, dose response (AID 602305); format: functional, cell-based;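 also: U2OS cells stimulated with forskolin near its EC80 as the cAMP inducer; potency is for inhibition of forskolin-stimulated cAMP signaling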
[14] = target: DNA dC->dU-editing enzyme APOBEC-3A (Homo sapiens, UniProt P31941); assay: A3A deaminase inhibition for selectivity – biochemical, dose response (AID 504722); format: functional
Sequence of DNA dC->dU-editing enzyme APOBEC-3A (P31941 whole entry): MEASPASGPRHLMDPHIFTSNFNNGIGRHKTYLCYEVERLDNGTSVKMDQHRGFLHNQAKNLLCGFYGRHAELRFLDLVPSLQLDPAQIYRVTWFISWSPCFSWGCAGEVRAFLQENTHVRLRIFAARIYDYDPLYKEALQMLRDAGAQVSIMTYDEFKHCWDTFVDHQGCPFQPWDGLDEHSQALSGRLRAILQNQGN

[15] = target: DNA dC->dU-editing enzyme APOBEC-3G (Homo sapiens, UniProt Q9HC16); assay: Dose Response confirmation of small molecule APOBEC3G DNA Deaminase Inhibitors via a fluorescence-based single-stranded DNA deaminase assay. [Related pubchem assays (depositor defined):AID493012, AID493028]; format: functional
Sequence of DNA dC->dU-editing enzyme APOBEC-3G (Q9HC16 whole entry): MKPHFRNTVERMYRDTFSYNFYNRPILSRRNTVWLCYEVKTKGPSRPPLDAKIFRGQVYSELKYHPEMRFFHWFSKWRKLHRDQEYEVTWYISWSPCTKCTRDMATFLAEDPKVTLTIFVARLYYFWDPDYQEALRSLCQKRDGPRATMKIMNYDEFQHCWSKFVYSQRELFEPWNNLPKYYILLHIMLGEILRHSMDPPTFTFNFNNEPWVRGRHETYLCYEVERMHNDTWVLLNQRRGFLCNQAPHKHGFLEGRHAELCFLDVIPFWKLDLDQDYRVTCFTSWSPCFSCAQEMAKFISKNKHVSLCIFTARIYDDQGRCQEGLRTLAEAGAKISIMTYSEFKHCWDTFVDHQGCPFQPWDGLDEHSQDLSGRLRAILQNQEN

Sequence of Nucleotide-binding oligomerization domain-containing protein 2 (Q9HC29 whole entry, the tested form may be a part): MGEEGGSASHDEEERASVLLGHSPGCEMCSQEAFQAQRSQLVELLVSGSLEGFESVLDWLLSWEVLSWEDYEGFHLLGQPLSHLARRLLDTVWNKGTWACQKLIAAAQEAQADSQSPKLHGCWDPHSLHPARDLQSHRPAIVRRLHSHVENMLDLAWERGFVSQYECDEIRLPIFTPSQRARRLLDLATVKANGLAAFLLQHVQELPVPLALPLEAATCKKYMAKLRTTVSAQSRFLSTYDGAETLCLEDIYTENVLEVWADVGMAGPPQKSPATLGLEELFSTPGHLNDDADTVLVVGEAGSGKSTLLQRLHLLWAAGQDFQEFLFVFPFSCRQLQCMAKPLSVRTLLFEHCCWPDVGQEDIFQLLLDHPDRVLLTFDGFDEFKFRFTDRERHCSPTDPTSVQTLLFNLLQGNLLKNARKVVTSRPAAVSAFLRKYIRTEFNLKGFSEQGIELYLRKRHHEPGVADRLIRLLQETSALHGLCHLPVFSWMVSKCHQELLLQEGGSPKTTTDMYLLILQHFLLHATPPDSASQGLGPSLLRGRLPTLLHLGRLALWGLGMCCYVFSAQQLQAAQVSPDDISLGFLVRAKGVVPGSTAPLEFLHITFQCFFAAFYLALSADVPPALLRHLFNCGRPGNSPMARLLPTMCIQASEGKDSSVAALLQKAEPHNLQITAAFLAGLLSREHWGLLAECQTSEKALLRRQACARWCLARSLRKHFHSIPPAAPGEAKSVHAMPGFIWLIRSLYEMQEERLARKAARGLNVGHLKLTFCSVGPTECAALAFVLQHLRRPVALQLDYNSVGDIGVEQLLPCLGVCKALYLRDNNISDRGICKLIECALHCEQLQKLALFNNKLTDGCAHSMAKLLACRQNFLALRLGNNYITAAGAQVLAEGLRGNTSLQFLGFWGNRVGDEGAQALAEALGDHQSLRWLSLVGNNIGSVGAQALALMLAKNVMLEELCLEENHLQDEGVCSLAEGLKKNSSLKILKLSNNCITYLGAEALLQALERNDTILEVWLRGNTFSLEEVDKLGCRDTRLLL

N#C/C(=C(/O)COC(=O)CSc1ccc2ccccc2c1)c1nc2ccccc2[nH]1
IC50 (HEK293): > 20 µM (inactive) | IC50 [1]: > 20 µM (inactive) | IC50 [2]: > 20 µM (inactive) | IC50 (Tumor necrosis factor): > 20 µM (inactive)

CCOC(=O)C1Nc2c(O)ccc(C)c2C2C=CCC12 (centres undefined)
IC50 [3]: > 100 µM (not active) | IC50 [4]: > 100 µM (inactive) | IC50 [5]: > 100 µM (inactive) | IC50 [6]: > 100 µM (not active)

N#Cc1c(-c2ccccc2)nc(SCc2cccc(C(F)(F)F)c2)[nH]c1=O
EC50 (Streptokinase A): 6.34 µM (active) | IC50 [1]: 7.5 µM (active) | IC50 [2]: 6.48 µM (active) | IC50 (Tumor necrosis factor): 8.05 µM (active) | IC50 (Genome polyprotein): 42.7 µM (active)

Cc1cc(-c2csc(N)n2)c(C)n1-c1ccc(Cl)c(Cl)c1
AC50 [7]: 12.9 µM (active)

O=S(=O)(/C(=C\c1ccc(C(F)(F)F)cc1)c1nc2ccccc2[nH]1)c1ccccc1
IC50 (Melanocortin receptor 4): 9.39 µM (active) | IC50 (Beta-galactosidase): > 66.6 µM (inactive) | AC50 [8]: 3.11 µM (active) | AC50 [9]: < 0.5 µM (active) | AC50 [10]: 1.85 µM (active) | AC50 [11]: 6.49 µM (active) | IC50 [12]: 4.42 µM (active) | IC50 [13]: > 64.6 µM (inactive)

CC(/C=N/n1c(S)nnc1-c1cc(C)[nH]n1)=C\c1ccco1
IC50 [14]: > 100 µM (inactive) | IC50 [15]: 2.47 µM (active)
